Measured values published in PubChem BioAssay AID248 (DTP/NCI, 2004).
Several values for one entry are separate records, joined by “and”; a condition that tells them apart may be missing. Equal entries are not always repeated. Inconclusive results and toxic doses are left out. Rule as the data show it: active = T/C of 150% or more; inactive = T/C below 125%.

Tested on: L1210 leukemia ip in BDF1 mice, survival T/C
Assay: NCI In Vivo Anticancer Drug Screen. Data for tumor model L1210 Leukemia (intraperitoneal) in B6D2F1 (BDF1) mice
Conditions: endpoint: mean survival time, higher = longer survival
Procedure, shortened: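 Tumor cells were implanted, animals were treated, and survival was followed. The result divides the treated measurement by the vehicle-control measurement.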

[1] = dose: 100.0 mg/kg/injection, schedule: Q04DX002 (ip), vehicle: saline with Tween-80
[2] = dose: 100.0 mg/kg/injection, schedule: Q04DX003 (ip), vehicle: saline with Tween-80
[3] = dose: 200.0 mg/kg/injection, schedule: Q04DX002 (ip), vehicle: saline with Tween-80
[4] = dose: 200.0 mg/kg/injection, schedule: Q04DX003 (ip), vehicle: saline with Tween-80
[5] = dose: 400.0 mg/kg/injection, schedule: Q04DX002 (ip), vehicle: saline with Tween-80
[6] = dose: 50.0 mg/kg/injection, schedule: Q01DX009 (ip), vehicle: Klucel (hydroxypropylcellulose) (HPC)
[7] = dose: 200.0 mg/kg/injection, schedule: Q01DX009 (ip), vehicle: Klucel (hydroxypropylcellulose) (HPC)
[8] = dose: 100.0 mg/kg/injection, schedule: Q01DX009 (ip), vehicle: Klucel (hydroxypropylcellulose) (HPC)
[9] = dose: 400.0 mg/kg/injection, schedule: Q01DX009 (ip), vehicle: Klucel (hydroxypropylcellulose) (HPC)
[10] = dose: 100.0 mg/kg/injection, schedule: Q01DX001 (ip), vehicle: saline
[11] = dose: 200.0 mg/kg/injection, schedule: Q01DX001 (ip), vehicle: saline
[12] = dose: 400.0 mg/kg/injection, schedule: Q01DX001 (ip), vehicle: saline

Measured: T/C

Cc1cc(Cl)ccc1OC(=O)Nc1ccccc1Cl
inactive: dose: 100.0 mg/kg/injection, schedule: Q01DX001 (ip), vehicle: saline with Tween-80 97 % of control | dose: 100.0 mg/kg/injection, schedule: Q01DX009 (ip), vehicle: saline with Tween-80 102 % of control and 106 % of control | dose: 100.0 mg/kg/injection, schedule: Q04DX002 (ip), vehicle: Klucel (hydroxypropylcellulose) (HPC) 103 % of control | [1] 105 % of control and 89 % of control | [2] 96 % of control | dose: 200.0 mg/kg/injection, schedule: Q01DX001 (ip), vehicle: saline with Tween-80 94 % of control | dose: 200.0 mg/kg/injection, schedule: Q01DX009 (ip), vehicle: saline with Tween-80 100 % of control and 88 % of control | dose: 200.0 mg/kg/injection, schedule: Q04DX002 (ip), vehicle: Klucel (hydroxypropylcellulose) (HPC) 124 % of control | [3] 92 % of control and 100 % of control | [4] 100 % of control | dose: 400.0 mg/kg/injection, schedule: Q01DX001 (ip), vehicle: saline with Tween-80 99 % of control | dose: 400.0 mg/kg/injection, schedule: Q01DX009 (ip), vehicle: saline with Tween-80 102 % of control and 106 % of control | dose: 400.0 mg/kg/injection, schedule: Q04DX002 (ip), vehicle: Klucel (hydroxypropylcellulose) (HPC) 106 % of control | [5] 92 % of control and 105 % of control | dose: 400.0 mg/kg/injection, schedule: Q04DX003 (ip), vehicle: saline with Tween-80 96 % of control

O=S(=O)(O)c1ccc(-c2ccc([As](=O)(O)O)cc2)cc1
inactive: [1] 95 % of control | [3] 103 % of control | [5] 87 % of control

Cc1n(CCBr)c([N+](=O)[O-])c[n+]1C1N=C(c2ccccc2Cl)c2cc(Cl)ccc2NC1=O (centres undefined)
inactive: [6] 86 % of control | [7] 89 % of control

C/C=C/CC1C(=O)N(c2ccccc2)N(c2ccccc2)C1=O
inactive: dose: 25.0 mg/kg/injection, schedule: Q01DX009 (ip), vehicle: Klucel (hydroxypropylcellulose) (HPC) 106 % of control | [6] 95 % of control | [8] 97 % of control

CCOC(=O)c1cc(=O)c2cc(S(=O)(=O)F)ccc2[nH]1
inactive: [8] 95 % of control | [7] 97 % of control | [9] 97 % of control

Cc1ccc(NC(=O)Nc2ccc(CNC(=O)COc3ccc(Cl)cc3C(=O)O)cc2)cc1S(=O)(=O)F
inactive: [10] 100 % of control | [11] 94 % of control | [12] 94 % of control

Cc1cc[n+](CCCCCCCCCCO)cc1C
inactive: dose: 87.5 mg/kg/injection, schedule: Q01DX001 (ip), vehicle: saline 97 % of control

O=C(Nc1ccccc1)C(CCCCN1C(=O)c2ccccc2C1=O)N1C(=O)c2ccccc2C1=O (centres undefined)
inactive: [8] 95 % of control | [7] 106 % of control | [9] 100 % of control

Cc1c2oc3c(C)ccc(C(=O)NC4C(=O)NC(C(C)C)C(=O)N5CCCC5C(=O)N(C)CC(=O)N(C)C(C(C)C)C(=O)OC4C)c3nc-2c(C(=O)NC2C(=O)NC(C(C)C)C(=O)N3CCCC3C(=O)N(C)CC(=O)N(C)C(C(C)C)C(=O)OC2C)cc1=O (centres undefined)
inactive: dose: 0.1 mg/kg/injection, schedule: Q01DX009 (ip), vehicle: saline + alcohol 101 % of control | dose: 0.2 mg/kg/injection, schedule: Q01DX001 (ip), vehicle: saline + alcohol 102 % of control | dose: 0.2 mg/kg/injection, schedule: Q01DX009 (ip), vehicle: saline + alcohol 107 % of control | dose: 0.25 mg/kg/injection, schedule: Q01DX009 (ip), vehicle: saline + alcohol 101 % of control | dose: 0.4 mg/kg/injection, schedule: Q01DX001 (ip), vehicle: saline + alcohol 104 % of control | dose: 0.4 mg/kg/injection, schedule: Q01DX009 (ip), vehicle: saline + alcohol 112 % of control | dose: 0.5 mg/kg/injection, schedule: Q01DX009 (ip), vehicle: saline + alcohol 97 % of control | dose: 0.6 mg/kg/injection, schedule: Q04DX003 (ip), vehicle: saline + alcohol 101 % of control | dose: 0.8 mg/kg/injection, schedule: Q01DX001 (ip), vehicle: saline + alcohol 104 % of control | dose: 1.0 mg/kg/injection, schedule: Q01DX009 (ip), vehicle: saline + alcohol 93 % of control | dose: 1.2 mg/kg/injection, schedule: Q04DX003 (ip), vehicle: saline + alcohol 109 % of control | dose: 1.25 mg/kg/injection, schedule: Q04DX003 (ip), vehicle: saline + alcohol 96 % of control | dose: 1.6 mg/kg/injection, schedule: Q01DX001 (ip), vehicle: saline + alcohol 106 % of control | dose: 2.0 mg/kg/injection, schedule: Q01DX009 (ip), vehicle: saline + alcohol 106 % of control | dose: 2.4 mg/kg/injection, schedule: Q04DX003 (ip), vehicle: saline + alcohol 119 % of control | dose: 2.5 mg/kg/injection, schedule: Q04DX003 (ip), vehicle: saline + alcohol 97 % of control | dose: 3.2 mg/kg/injection, schedule: Q01DX001 (ip), vehicle: saline + alcohol 111 % of control | dose: 4.0 mg/kg/injection, schedule: Q01DX009 (ip), vehicle: saline + alcohol 103 % of control | dose: 5.0 mg/kg/injection, schedule: Q04DX003 (ip), vehicle: saline + alcohol 105 % of control | dose: 6.4 mg/kg/injection, schedule: Q01DX001 (ip), vehicle: saline + alcohol 117 % of control | dose: 10.0 mg/kg/injection, schedule: Q04DX003 (ip), vehicle: saline + alcohol 106 % of control | dose: 20.0 mg/kg/injection, schedule: Q04DX003 (ip), vehicle: saline + alcohol 116 % of control | dose: 12.5 micrograms/kg/injection, schedule: Q01DX009 (ip), vehicle: saline + alcohol 101 % of control | dose: 50.0 micrograms/kg/injection, schedule: Q01DX009 (ip), vehicle: saline + alcohol 103 % of control | dose: 75.0 micrograms/kg/injection, schedule: Q04DX003 (ip), vehicle: saline + alcohol 104 % of control | dose: 150.0 micrograms/kg/injection, schedule: Q04DX003 (ip), vehicle: saline + alcohol 102 % of control | dose: 300.0 micrograms/kg/injection, schedule: Q04DX003 (ip), vehicle: saline + alcohol 106 % of control

Cc1ccc(NC(=O)CS)cc1
inactive: [2] 100 % of control | [4] 93 % of control

COC(c1ccccc1)(c1ccccc1)c1ccccc1
inactive: dose: 50.0 mg/kg/injection, schedule: Q01DX001 (ip), vehicle: saline 91 % of control | [10] 103 % of control | [11] 101 % of control | [12] 95 % of control

COc1ccc(C=Nc2ccc(Cl)cc2)cc1
inactive: [8] 96 % of control | dose: 100.0 mg/kg/injection, schedule: Q04DX003 (ip), vehicle: Klucel (hydroxypropylcellulose) (HPC) 102 % of control | [7] 97 % of control | dose: 200.0 mg/kg/injection, schedule: Q04DX003 (ip), vehicle: Klucel (hydroxypropylcellulose) (HPC) 104 % of control | dose: 400.0 mg/kg/injection, schedule: Q04DX003 (ip), vehicle: Klucel (hydroxypropylcellulose) (HPC) 100 % of control

CN=C(NC)c1ccc(NC(=O)/C=C/C(=O)Nc2ccc(C(=NC)NC)cc2)cc1
inactive: dose: 12.5 mg/kg/injection, schedule: Q01DX Z (ip), vehicle: carboxymethylcellulose (CMC) 97 % of control | dose: 25.0 mg/kg/injection, schedule: Q01DX Z (ip), vehicle: carboxymethylcellulose (CMC) 91 % of control | dose: 50.0 mg/kg/injection, schedule: Q01DX Z (ip), vehicle: carboxymethylcellulose (CMC) 99 % of control
